Experiments:
Assay type in all cases: biochemical
Flt3 = target: T1, Flt3 (Homo sapiens, UniProt P36888); test: Flt3 Kinase Activity
T1 sequence (P36888 27-993): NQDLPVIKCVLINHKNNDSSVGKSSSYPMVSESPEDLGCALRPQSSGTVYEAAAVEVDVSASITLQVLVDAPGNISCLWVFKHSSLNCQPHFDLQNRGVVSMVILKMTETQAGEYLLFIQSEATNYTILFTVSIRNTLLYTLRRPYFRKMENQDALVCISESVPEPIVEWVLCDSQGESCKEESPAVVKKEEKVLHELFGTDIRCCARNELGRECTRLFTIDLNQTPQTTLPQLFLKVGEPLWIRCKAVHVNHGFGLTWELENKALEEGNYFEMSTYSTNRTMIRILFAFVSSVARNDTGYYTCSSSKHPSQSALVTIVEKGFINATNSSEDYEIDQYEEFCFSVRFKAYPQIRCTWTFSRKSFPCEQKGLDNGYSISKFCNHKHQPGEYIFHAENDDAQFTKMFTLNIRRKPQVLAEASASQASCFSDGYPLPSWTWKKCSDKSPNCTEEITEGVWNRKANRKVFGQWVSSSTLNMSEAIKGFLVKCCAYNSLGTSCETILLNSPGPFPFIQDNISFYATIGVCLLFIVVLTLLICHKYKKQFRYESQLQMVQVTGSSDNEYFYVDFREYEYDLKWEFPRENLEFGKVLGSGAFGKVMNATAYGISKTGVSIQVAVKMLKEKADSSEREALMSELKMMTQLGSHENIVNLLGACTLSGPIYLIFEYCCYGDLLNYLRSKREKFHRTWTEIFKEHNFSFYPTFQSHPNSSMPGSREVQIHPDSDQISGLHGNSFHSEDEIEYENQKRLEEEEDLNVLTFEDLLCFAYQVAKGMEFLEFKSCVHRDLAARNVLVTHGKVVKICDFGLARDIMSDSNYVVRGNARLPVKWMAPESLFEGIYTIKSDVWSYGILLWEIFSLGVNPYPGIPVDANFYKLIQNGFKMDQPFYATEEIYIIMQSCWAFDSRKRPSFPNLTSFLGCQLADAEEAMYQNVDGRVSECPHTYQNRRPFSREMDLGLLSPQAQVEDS
Protocol: Flt3 Kinase Activity: In a final reaction volume of 25 μl, Flt3 (h) (5-10 mU) is incubated with 8 mM MOPS pH 7.0, 0.2 mM EDTA, 50 μM EAIYAAPFAKKK, 10 mM MgAcetate and [γ-^33P-ATP] (specific activity approx. 500 cpm/pmol, concentration as required). The reaction is initiated by the addition of the MgATP mix. After incubation for 40 minutes at room temperature, the reaction is stopped by the addition of […] of a 3% phosphoric acid solution. […] of the reaction is then spotted onto a P30 filtermat and washed three times for 5 minutes in 75 mM phosphoric acid and once in methanol prior to drying and scintillation counting.

JNK3 = JNK3 (Homo sapiens, UniProt P53779); test: JNK3 Kinase Activity; details: compound at 2 μm
Protocol: (§1) JNK3 Kinase Activity: In a final reaction volume of 25 μl, JNK3 (h) (5-10 mU) is incubated with 50 mM Tris pH 7.5, 0.1 mM EGTA, 0.1% β-mercaptoethanol, 250 μM peptide, 10 mM MgAcetate and [γ-^33P-ATP] (specific activity approx. 500 cpm/pmol, concentration as required). The reaction is initiated by the addition of the MgATP mix. After incubation for 40 minutes at room temperature, the reaction is stopped by the addition of 5 μl of a 3% phosphoric acid solution. 10 μl of the reaction is then spotted onto a P30 filtermat and washed three times for 5 minutes in 75 mM phosphoric acid and once in methanol prior to drying and scintillation counting.

p38α = p38α (Homo sapiens, UniProt Q16539); test: SAPK2a Kinase Activity (p38α)
Protocol: as §1, with “SAPK2a Kinase” for “JNK3 Kinase”, “μl, SAPK2a” for “μl, JNK3”, “with 25” for “with 50”, “7.5, 0.02” for “7.5, 0.1”, “EGTA, 0.33 mg/ml myelin basic protein,” for “EGTA, 0.1% β-mercaptoethanol, 250 μM peptide,”, “is the” for “is then”

p38δ = p38δ (Homo sapiens, UniProt O15264); test: SAPK4 Kinase Activity (p38δ)
Protocol: SAPK4 Kinase Activity: In a final reaction volume of 25 μl, SAPK4 (h) (5-10 mU) is incubated with 25 mM Tris pH 7.5, 0.02 mM EGTA, 0.33 mg/ml myelin basic protein, 10 mM MgAcetate and [γ-^33P-ATP] (specific activity approx. 500 cpm/pmol, concentration as required). The reaction is initiated by the addition of the MgATP mix. After incubation for 40 minutes at room temperature, the reaction is stopped by the addition of 5 μl of a 3% phosphoric acid solution. 10 μL of the reaction is the spotted onto a P30 filtermat and washed three times for 5 minutes in 75 mM phosphoric acid and once in methanol prior to drying and scintillation counting.

EphA1 = EphA1 (Homo sapiens, UniProt P21709); test: Protein kinase inhibition, EphA1; details: Rate (μM) 2, read-out: % Control
EphA3 = EphA3 (Homo sapiens, UniProt P29320); test: Protein kinase inhibition, EphA3; details: Rate (μM) 2, read-out: % Control
MuSK = MuSK (Homo sapiens, UniProt O15146); test: Protein kinase inhibition, MuSK; details: Rate (μM) 2, read-out: % Control
P70S6K = P70S6K (Homo sapiens, UniProt P23443); test: Protein kinase inhibition, P70S6K; details: Rate (μM) 2, read-out: % Control
ROCKI [1] = target: ROCKI (Homo sapiens, UniProt Q13464); test: Protein kinase inhibition, ROCKI (human); details: Rate (μM) 2, read-out: % Control
ROCKI [2] = test: Protein kinase inhibition, ROCKI (rat); details: Rate (μM) 2
Ros = Ros (Homo sapiens, UniProt P08922); test: Protein kinase inhibition, Ros; details: Rate (μM) 2, read-out: % Control
TAK1 = TAK1 (Homo sapiens, UniProt O43318); test: Protein kinase inhibition, TAK1; details: Rate (μM) 2, read-out: % Control

Chain of p38δ (O15264 whole entry): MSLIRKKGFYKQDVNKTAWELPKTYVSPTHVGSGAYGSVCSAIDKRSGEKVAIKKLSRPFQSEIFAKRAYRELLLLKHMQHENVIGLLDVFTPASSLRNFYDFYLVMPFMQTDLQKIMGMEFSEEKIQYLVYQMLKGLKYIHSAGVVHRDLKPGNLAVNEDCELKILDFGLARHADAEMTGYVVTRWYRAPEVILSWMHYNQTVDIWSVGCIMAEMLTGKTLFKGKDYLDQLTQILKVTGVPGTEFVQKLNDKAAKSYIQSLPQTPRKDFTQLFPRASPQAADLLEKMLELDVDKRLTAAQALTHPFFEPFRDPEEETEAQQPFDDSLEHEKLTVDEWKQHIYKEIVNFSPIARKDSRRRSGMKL
Chain of p38α (Q16539 whole entry): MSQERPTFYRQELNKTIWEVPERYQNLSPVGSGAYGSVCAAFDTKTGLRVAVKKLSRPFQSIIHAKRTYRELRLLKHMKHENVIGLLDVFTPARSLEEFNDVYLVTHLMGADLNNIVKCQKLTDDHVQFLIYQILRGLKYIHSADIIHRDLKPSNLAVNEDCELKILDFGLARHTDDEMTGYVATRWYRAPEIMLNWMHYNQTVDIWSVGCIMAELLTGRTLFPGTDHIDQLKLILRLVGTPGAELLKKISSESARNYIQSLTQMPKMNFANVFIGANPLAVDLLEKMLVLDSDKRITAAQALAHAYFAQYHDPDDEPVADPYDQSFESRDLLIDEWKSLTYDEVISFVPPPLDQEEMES
Chain of JNK3 (P53779 whole entry): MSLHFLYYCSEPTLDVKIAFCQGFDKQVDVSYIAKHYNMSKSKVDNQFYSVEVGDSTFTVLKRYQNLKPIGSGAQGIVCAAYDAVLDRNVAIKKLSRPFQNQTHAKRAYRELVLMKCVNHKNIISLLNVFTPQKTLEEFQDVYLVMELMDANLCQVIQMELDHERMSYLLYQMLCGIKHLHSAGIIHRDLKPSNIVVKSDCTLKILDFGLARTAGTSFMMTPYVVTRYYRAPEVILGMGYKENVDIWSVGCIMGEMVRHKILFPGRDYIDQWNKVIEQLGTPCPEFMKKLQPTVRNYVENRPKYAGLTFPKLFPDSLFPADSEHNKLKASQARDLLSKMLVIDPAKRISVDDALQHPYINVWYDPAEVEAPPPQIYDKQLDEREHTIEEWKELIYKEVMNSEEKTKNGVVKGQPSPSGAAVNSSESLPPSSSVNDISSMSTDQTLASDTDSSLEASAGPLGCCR
Chain of EphA3 (P29320 21-983): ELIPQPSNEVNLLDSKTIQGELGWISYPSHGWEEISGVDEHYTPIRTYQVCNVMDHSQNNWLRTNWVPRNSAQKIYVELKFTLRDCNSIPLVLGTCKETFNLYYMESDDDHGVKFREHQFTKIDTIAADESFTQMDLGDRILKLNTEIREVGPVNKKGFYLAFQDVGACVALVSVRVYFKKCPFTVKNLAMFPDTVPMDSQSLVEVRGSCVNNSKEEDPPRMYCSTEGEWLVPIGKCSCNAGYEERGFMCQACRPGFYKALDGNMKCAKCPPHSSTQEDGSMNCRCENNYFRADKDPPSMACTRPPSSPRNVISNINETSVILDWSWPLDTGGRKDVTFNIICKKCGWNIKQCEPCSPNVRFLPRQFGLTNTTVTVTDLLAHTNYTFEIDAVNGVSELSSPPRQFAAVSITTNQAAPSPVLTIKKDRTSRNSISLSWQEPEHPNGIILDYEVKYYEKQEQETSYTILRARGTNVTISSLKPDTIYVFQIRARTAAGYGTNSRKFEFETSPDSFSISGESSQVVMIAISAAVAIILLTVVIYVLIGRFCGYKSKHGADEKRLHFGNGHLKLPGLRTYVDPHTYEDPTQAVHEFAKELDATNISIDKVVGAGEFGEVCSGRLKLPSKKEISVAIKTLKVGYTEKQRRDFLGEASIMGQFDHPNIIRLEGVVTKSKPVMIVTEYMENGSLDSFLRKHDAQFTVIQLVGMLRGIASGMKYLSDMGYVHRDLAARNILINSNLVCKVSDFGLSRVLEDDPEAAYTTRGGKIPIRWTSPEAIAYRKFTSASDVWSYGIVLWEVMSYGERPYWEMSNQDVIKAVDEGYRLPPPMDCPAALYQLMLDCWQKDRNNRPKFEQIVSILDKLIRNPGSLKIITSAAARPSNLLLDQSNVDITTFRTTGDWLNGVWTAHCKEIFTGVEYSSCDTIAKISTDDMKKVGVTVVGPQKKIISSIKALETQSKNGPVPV
Chain of P70S6K (P23443 whole entry): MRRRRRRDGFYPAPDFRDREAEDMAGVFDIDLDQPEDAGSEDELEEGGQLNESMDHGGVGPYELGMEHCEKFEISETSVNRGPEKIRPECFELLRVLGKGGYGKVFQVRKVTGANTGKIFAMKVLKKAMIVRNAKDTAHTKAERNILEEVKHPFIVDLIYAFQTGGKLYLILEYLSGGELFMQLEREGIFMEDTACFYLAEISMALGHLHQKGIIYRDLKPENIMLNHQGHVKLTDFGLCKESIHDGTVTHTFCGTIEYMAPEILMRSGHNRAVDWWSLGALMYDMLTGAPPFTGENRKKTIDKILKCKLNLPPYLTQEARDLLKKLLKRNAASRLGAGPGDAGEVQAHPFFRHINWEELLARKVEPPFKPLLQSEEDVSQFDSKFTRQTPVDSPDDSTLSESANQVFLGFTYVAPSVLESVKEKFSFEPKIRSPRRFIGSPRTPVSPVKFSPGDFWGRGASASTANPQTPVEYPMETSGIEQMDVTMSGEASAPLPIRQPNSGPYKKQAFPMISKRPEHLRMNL
Chain of ROCKI (Homo sapiens, UniProt Q13464) (Q13464 whole entry): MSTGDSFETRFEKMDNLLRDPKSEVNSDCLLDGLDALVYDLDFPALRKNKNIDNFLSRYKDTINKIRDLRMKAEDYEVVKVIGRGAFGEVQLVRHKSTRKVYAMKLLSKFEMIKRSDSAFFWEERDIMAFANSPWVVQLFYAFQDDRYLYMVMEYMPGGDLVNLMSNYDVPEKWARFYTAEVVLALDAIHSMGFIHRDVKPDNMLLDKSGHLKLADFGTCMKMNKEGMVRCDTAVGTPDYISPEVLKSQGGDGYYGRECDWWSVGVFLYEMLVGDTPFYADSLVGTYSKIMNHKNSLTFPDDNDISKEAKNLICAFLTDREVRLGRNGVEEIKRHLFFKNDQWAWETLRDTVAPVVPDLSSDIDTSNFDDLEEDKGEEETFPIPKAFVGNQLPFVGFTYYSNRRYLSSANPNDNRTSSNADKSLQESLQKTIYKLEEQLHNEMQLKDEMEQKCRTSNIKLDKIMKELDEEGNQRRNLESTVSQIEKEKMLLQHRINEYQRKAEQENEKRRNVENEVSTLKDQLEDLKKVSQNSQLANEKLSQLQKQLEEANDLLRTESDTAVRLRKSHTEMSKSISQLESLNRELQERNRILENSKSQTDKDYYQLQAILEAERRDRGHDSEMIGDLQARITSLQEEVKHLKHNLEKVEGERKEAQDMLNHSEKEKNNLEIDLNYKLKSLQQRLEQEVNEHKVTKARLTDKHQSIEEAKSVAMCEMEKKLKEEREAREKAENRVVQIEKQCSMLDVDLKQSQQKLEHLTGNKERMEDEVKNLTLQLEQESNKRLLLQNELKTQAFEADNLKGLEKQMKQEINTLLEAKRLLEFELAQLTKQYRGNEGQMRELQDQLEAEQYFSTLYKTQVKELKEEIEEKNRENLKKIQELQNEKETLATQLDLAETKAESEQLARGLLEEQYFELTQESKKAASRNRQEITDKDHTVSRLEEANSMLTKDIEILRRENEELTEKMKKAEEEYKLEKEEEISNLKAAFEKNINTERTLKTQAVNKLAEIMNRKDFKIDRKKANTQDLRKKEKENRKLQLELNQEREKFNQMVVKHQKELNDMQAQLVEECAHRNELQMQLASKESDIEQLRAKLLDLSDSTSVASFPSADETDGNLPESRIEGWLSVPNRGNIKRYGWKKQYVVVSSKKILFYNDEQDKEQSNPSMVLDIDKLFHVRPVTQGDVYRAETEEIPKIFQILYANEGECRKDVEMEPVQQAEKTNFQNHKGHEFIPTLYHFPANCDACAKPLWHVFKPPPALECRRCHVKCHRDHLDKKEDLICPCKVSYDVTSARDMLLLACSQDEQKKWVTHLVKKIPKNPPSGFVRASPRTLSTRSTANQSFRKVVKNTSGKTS
Chain of EphA1 (P21709 26-976): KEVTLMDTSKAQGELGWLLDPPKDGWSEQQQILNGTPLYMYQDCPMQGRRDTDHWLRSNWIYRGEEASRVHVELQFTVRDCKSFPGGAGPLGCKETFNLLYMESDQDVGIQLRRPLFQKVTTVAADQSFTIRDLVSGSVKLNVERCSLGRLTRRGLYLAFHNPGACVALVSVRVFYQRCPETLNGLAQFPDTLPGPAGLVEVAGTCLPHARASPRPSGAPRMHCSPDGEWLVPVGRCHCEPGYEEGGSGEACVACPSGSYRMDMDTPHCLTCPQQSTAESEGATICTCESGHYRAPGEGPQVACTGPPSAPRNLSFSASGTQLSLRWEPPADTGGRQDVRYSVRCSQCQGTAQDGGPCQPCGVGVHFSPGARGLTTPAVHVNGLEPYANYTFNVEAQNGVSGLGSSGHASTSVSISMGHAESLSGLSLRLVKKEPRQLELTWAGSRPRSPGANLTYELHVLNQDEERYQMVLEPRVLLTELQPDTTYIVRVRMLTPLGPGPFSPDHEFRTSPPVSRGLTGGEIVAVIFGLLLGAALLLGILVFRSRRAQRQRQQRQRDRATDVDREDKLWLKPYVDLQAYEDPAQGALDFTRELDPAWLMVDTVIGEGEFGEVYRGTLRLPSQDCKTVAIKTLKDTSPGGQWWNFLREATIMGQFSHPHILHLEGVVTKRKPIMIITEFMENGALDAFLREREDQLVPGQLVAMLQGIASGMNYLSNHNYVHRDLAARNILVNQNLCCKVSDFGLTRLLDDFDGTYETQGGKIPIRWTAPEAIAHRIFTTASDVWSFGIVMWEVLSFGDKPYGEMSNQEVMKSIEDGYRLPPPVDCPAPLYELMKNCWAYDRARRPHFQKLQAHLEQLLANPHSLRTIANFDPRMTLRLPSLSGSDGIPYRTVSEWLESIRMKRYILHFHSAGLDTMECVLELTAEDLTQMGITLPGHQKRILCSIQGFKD

- remaining activity at 2 µM (Flt3; 40 min, Flt3, Human, Rate (μM) 2, read-out: % Control): 76 to 100%
- % Inhibition at 2 μm (Flt3; Flt3, compound at 2 μm): 76-100%
- % Inhibition at 2 μm (JNK3): 0-25%
- % inhibition (p38α; P38a, Human, Rate (μM) 2): 76-100%
- % Inhibition at 2 μm (p38α; p38α, compound at 2 μm): 76-100%
- remaining activity at 2 µM (p38δ; 40 min, P38d, Human, Rate (μM) 2, read-out: % Control): 76 to 100%
- % Inhibition at 2 μm (p38δ; p38δ, compound at 2 μm): 76-100%
- remaining activity at 2 µM (EphA1): 76 to 100%
- remaining activity at 2 µM (EphA3): 76 to 100%
- remaining activity at 2 µM (MuSK): 76 to 100%
- remaining activity at 2 µM (P70S6K): 51 to 75%
- remaining activity at 2 µM (ROCKI [1]): 51 to 75%
- % inhibition (ROCKI [2]): 51-75%
- remaining activity at 2 µM (Ros): 76 to 100%
- remaining activity at 2 µM (TAK1): 76 to 100%
Compound: CC(C)(C)c1cc(C(=O)N2CCS(=O)(=O)CC2)c(NC(=O)Nc2ccc(Oc3ccncc3)cc2)s1 [Example 3, 1-[5-tert-Butyl-3-(1,1-dioxo-1λ^6-thiomorpholine-4-carbonyl)thiophen-2-yl]-3-[4-(pyridin-4-yloxy)phenyl]urea]
